We go through 34 compounds from PubChem BioAssay AID1013 (Columbia University Molecular Screening Center, 2008).

Activity calls are given as the source filed them. How the calls were made is not given here.

One test can be described thus: inhibitors of TNFa-induced VCAM1 expression, confirmation, imaging, TNFa stimulus, retest and dose response (AID 1013).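 On cell count: compound on cells 1 h before TNFa then 24 h more.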 The settings on record: TNFa-stimulated cells, VCAM1 expression imaging; at 2 µM; stronger effect = higher value.
As usually defined, the inhibition is the drop in the measured response relative to a control, in per cent. For `CCOC(=O)c1oc2ccccc2c1NC(=O)Cc1cccs1`, the inhibition was -16.8% (inactive).

Regarding `O=C(NCCO)C(c1ccccc1)c1ccccc1`, the inhibition was -14.4% (inactive).

In the case of `COc1ccc(Oc2cc(NC(=O)c3nn(C)cc3[N+](=O)[O-])cc([N+](=O)[O-])c2)cc1`, the inhibition is 74.7% (inactive). On to `CCOC(=O)Cc1csc(SCC(=O)/C(C#N)=C(\C)N)n1`, for which the inhibition was 3.4% (inactive). On to `Cc1ccc(-c2nc(NC(=O)c3nn(C)cc3[N+](=O)[O-])sc2C)cc1`, for which the inhibition is 91.2% (inactive).

For the compound `COc1ccc(CSc2nc3ccccc3[nH]2)cc1`, the inhibition is -2.5% (inactive). Same read-out and setting: to `O=[N+]([O-])c1ccc(/C=N/n2c(COc3ccccc3)n[nH]c2=S)cc1` belongs -9.2% (inactive); to `O=C(NCc1ccco1)c1cc(-c2ccc(Cl)cc2)on1`, -6.2% (inactive); to `Cc1ccc(NC(=O)Cn2nnc(-c3ccccc3NC(=O)c3cccs3)n2)cc1`, 9.2% (inactive). On the same count and under the same terms, to `Nc1nc2c3ccccc3nc(Cc3ccccc3)n2n1` belongs -8.7% (inactive); to `COc1ccc(CC(=O)Nc2ccc(-c3noc(-c4cccc(OC)c4)n3)cc2)cc1`, 5.5% (inactive); to `O=C(CN1CCSCC1)N1CCc2[nH]c3ccc(Br)cc3c2C1`, -11.1% (inactive). Take `CC(C)(C)NC(=O)CSc1nsc(SCC(=O)NC(C)(C)C)c1C#N`: the inhibition was 1.8% (inactive). Consider `O=C(CCCCCN1C(=O)c2ccccc2C1=O)Nc1nccs1`, for which the inhibition is -4.8% (inactive). As to `CCOc1ccc(C2/C(=C(\O)c3c(C)[nH]c(C(=O)OC)c3C)C(=O)C(=O)N2CCN(C)C)cc1` (stereo unspecified), the inhibition is -5.6% (inactive). With `CCCn1nc([N+](=O)[O-])c(C(C#N)c2nc3ccccc3s2)c(Cl)c1=O` (stereo unspecified), the inhibition is 18.2% (inactive). Regarding `COc1ccccc1-n1cnc2cc(NCc3cccs3)ccc21`, the inhibition was -3.5% (inactive). Consider `CCOC(=O)c1ccc(NC(=O)CCNc2c(N3CCCC3)c(=O)c2=O)cc1`, for which the inhibition was -10.3% (inactive).

As to `Cc1cc(OCc2ccc(F)cc2)nc(-c2ccccc2O)n1`, the inhibition is -12.1% (inactive).

As for `COc1cc(CC(=O)Nc2ncc(C)s2)cc(OC)c1OC`, the inhibition is -6.6% (inactive). Consider `CCn1c(SCC(=O)NC(C)c2ccccc2)nc2ccccc21` (stereo unspecified), for which the inhibition was -13.3% (inactive).

For the compound `N#Cc1nc(-c2ccco2)oc1N1CCOCC1`, the inhibition is -13.5% (inactive). For `CSC1=NCCN1C(=O)Cc1ccc(Cl)cc1`, the inhibition was -11.8% (inactive). On to `Cn1c(NCc2c[nH]c3ccccc23)nc2ccccc21`, for which the inhibition was 18% (inactive). On to `O=C(c1ccc(Cl)cc1)N1CCCOC1`, for which the inhibition was -7.1% (inactive). As to `COC(=O)c1ccc(-n2nnnc2SCC(=O)N2CCCCC2)cc1`, the inhibition is 0.2% (inactive). The same measure, in the same setting: to `CCN(CC)C(=O)CN(c1ccc(Cl)cc1)S(=O)(=O)c1ccccc1` belongs -3.1% (inactive); to `O=C(Nc1ccccc1)c1nnsc1S(=O)(=O)c1ccc(Cl)cc1`, 20.4% (inactive). On the same count and under the same terms, with `CN(CC(=O)NCc1ccncc1)S(=O)(=O)c1ccc(F)cc1` the figure was 0.2% (inactive); with `CC1=C(C#N)C(Nc2cccc(C)n2)(C(F)(F)F)C(=O)N1` (stereo unspecified), -1% (inactive); with `CC(=O)c1cccc(NC(=O)c2cc(-c3ccc(F)cc3)on2)c1`, -10.4% (inactive).

Take `C/C(=C\C(=O)c1cccnc1)Nc1ccc(C)c(C)c1`: the inhibition was -15.6% (inactive).

On to `CCCOC(=O)CSC1=C(C#N)C(c2ccccc2OC)C(C#N)C(=O)N1` (stereo unspecified), for which the inhibition was -11.7% (inactive). For `CCOC(=O)c1ccc(NS(=O)C23CC4CC(CC(C4)C2)C3)cc1` (stereo unspecified), the inhibition was -13.9% (inactive).

The same test, now with this note: TNFa-stimulated cells, VCAM1 expression imaging; cell count; at 10 µM; stronger effect = lower value.
The compound `COc1ccc(Oc2cc(NC(=O)c3nn(C)cc3[N+](=O)[O-])cc([N+](=O)[O-])c2)cc1` had a cell count of 114%. `Cc1ccc(-c2nc(NC(=O)c3nn(C)cc3[N+](=O)[O-])sc2C)cc1` showed a cell count of 113%.
